How the values were obtained:
Assay type in all cases: biochemical
JAK2 = molecular target: T1, JAK2 (Homo sapiens, UniProt O60674); experiment: JAK2 inhibition (Table 4); conditions: read-out: JAK2 Ki
T1 construct: made in house; host or cells: SF9 insect cells (baculovirus)

TYK2 = molecular target: T2, TYK2 (Homo sapiens, UniProt P29597); experiment: TYK2 inhibition (Table 4)
T2 construct: made in house; host or cells: SF9 insect cells (baculovirus)
T2 sequence (P29597 873-1187): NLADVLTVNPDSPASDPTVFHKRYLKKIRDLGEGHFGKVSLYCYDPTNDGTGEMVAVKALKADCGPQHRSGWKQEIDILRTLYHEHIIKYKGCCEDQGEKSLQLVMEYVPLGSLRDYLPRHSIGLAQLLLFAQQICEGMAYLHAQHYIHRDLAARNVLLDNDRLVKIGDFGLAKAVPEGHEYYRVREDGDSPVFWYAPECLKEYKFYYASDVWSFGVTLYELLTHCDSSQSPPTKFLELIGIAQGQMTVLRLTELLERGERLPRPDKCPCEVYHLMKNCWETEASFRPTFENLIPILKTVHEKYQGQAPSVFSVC

JAK1 = molecular target: T3, JAK1 (Homo sapiens, UniProt P23458); experiment: JAK1 inhibition (Table 4); conditions: read-out: JAK1 Ki
T3 construct: made in house; host or cells: SF9 insect cells (baculovirus)
T3 sequence (P23458 852-1154): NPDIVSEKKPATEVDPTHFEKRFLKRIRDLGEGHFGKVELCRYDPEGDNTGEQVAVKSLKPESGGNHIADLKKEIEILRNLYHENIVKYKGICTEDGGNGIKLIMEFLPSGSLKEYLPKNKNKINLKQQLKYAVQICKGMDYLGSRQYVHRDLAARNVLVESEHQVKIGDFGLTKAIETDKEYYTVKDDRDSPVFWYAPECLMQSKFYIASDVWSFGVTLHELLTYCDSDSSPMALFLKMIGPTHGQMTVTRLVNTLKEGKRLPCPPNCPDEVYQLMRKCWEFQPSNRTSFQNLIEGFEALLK

JAK3 = molecular target: T4, JAK3 (Homo sapiens, UniProt P52333); experiment: JAK3 inhibition (Table 4); conditions: read-out: JAK3 Ki
T4 construct: made in house; host or cells: SF9 insect cells (baculovirus)
T4 sequence (P52333 783-1124): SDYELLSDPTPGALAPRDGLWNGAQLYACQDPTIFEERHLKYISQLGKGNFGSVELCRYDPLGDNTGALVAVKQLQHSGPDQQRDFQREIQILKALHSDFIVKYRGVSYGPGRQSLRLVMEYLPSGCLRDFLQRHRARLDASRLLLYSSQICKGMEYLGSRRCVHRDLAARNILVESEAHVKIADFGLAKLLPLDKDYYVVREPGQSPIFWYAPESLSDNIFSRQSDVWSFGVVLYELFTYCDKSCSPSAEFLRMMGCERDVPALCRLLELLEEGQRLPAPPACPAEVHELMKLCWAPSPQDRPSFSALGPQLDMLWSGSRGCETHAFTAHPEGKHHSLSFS

T1 sequence (O60674 812-1132): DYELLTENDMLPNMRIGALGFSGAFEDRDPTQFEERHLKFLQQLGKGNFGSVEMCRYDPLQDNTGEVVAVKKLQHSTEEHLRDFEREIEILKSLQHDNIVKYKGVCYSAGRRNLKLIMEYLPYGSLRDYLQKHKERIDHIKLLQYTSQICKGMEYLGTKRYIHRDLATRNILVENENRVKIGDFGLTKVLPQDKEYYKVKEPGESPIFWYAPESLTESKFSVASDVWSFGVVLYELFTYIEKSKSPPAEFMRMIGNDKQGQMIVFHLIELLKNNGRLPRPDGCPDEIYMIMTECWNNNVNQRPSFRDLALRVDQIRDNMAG

| SMILES | Ki (JAK2) | Ki (TYK2) | Ki (JAK1) | Ki (JAK3) |
| --- | --- | --- | --- | --- |
| C[C@@H](O)c1nc2cnc3[nH]ccc3c2n1C1CCN(Cc2cncn2C)CC1 [Example 823, (R)-1-{1-[1-(3-Methyl-3H-imidazol-4-ylmethyl)-piperidin-4-yl]-1,6-dihydro-1,3,5,6-tetraaza-as-indacen-2-yl}-ethanol] | 171 nM | 179 nM | 22.2 nM | 84.8 nM |
| C[C@@H](O)c1nc2cnc3[nH]ccc3c2n1C1CCN(Cc2ccn(C)n2)CC1 [Example 825, (R)-1-{1-[1-(1-Methyl-1H-pyrazol-3-ylmethyl)-piperidin-4-yl]-1,6-dihydro-1,3,5,6-tetraaza-as-indacen-2-yl}-ethanol] | 350 nM | 1960 nM | 26 nM | 143 nM |
| C[C@@H](O)c1nc2cnc3[nH]ccc3c2n1C1CCN(Cc2nccn2C)CC1 [Example 826, (R)-1-{1-[1-(1-Methyl-1H-imidazol-2-ylmethyl)-piperidin-4-yl]-1,6-dihydro-1,3,5,6-tetraaza-as-indacen-2-yl}-ethanol] | 419 nM | 1160 nM | 47 nM | 209 nM |
| C[C@@H](O)c1nc2cnc3[nH]ccc3c2n1C1CCN(C2COC2)CC1 [Example 832, (R)-1-[1-(1-Oxetan-3-yl-piperidin-4-yl)-1,6-dihydro-1,3,5,6-tetraaza-as-indacen-2-yl]-ethanol] | 428 nM | 493 nM | 55.5 nM | 516 nM |
| CC(C)(C)NCCOCc1nc2cnc3[nH]ccc3c2n1C1CCN(CCC#N)CC1 [Example 833, 3-{4-[2-(2-tert-Butylamino-ethoxymethyl)-6H-1,3,5,6-tetraaza-as-indacen-1-yl]-piperidin-1-yl}-propionitrile] | 14 nM | 125 nM | 18.1 nM | 101 nM |
| N#CCCN1CCC(n2c(COCC(F)(F)F)nc3cnc4[nH]ccc4c32)CC1 [Example 834, 3-{4-[2-(2,2,2-Trifluoro-ethoxymethyl)-6H-1,3,5,6-tetraaza-as-indacen-1-yl]-piperidin-1-yl}-propionitrile] | 117 nM | 637 nM | 33.5 nM | 85.4 nM |
| N#CCCN1CCC(n2c(COCc3ccc(F)c(F)c3)nc3cnc4[nH]ccc4c32)CC1 [Example 835, 3-{4-[2-(3,4-Difluoro-benzyloxymethyl)-6H-1,3,5,6-tetraaza-as-indacen-1-yl]-piperidin-1-yl}-propionitrile] | 59.1 nM | 320 nM | 37.9 nM | 29.6 nM |
| N#CCCN1CCC(n2c(COCC3CCOC3)nc3cnc4[nH]ccc4c32)CC1 (stereo not drawn) [Example 836, 3-{4-[2-(Tetrahydro-furan-3-ylmethoxymethyl)-6H-1,3,5,6-tetraaza-as-indacen-1-yl]-piperidin-1-yl}-propionitrile] | 89 nM | 384 nM | 38.6 nM | 95.1 nM |
| N#CCCN1CCC(n2c(COC3CCOCC3)nc3cnc4[nH]ccc4c32)CC1 [Example 837, 3-{4-[2-(Tetrahydro-pyran-4-yloxymethyl)-6H-1,3,5,6-tetraaza-as-indacen-1-yl]-piperidin-1-yl}-propionitrile] | 83.2 nM | 298 nM | 39.6 nM | 114 nM |
| N#CCCN1CCC(n2c(COCC3CCCC3)nc3cnc4[nH]ccc4c32)CC1 [Example 838, 3-[4-(2-Cyclopentylmethoxymethyl-6H-1,3,5,6-tetraaza-as-indacen-1-yl)-piperidin-1-yl]-propionitrile] | 85.5 nM | 618 nM | 54.2 nM | 90.4 nM |
| N#CCCN1CCC(n2c(COCC3CC3)nc3cnc4[nH]ccc4c32)CC1 [Example 839, 3-[4-(2-Cyclopropylmethoxymethyl-6H-1,3,5,6-tetraaza-as-indacen-1-yl)-piperidin-1-yl]-propionitrile] | 106 nM | 595 nM | 61.7 nM | 73.5 nM |
| N#CCCN1CCC(n2c(COCC3CCC3)nc3cnc4[nH]ccc4c32)CC1 [Example 840, 3-[4-(2-Cyclobutylmethoxymethyl-6H-1,3,5,6-tetraaza-as-indacen-1-yl)-piperidin-1-yl]-propionitrile] | 102 nM | 635 nM | 62.3 nM | 104 nM |
| CC1CC1COCc1nc2cnc3[nH]ccc3c2n1C1CCN(CCC#N)CC1 (stereo not drawn) [Example 841, 3-{4-[2-(2-Methyl-cyclopropylmethoxymethyl)-6H-1,3,5,6-tetraaza-as-indacen-1-yl]-piperidin-1-yl}-propionitrile] | 109 nM | 771 nM | 66.5 nM | 147 nM |
| CC(C)OCc1nc2cnc3[nH]ccc3c2n1C1CCN(CCC#N)CC1 [Example 842, 3-[4-(2-Isopropoxymethyl-6H-1,3,5,6-tetraaza-as-indacen-1-yl)-piperidin-1-yl]-propionitrile] | 171 nM | 905 nM | 81 nM | 236 nM |
| CC(C)OCCOCc1nc2cnc3[nH]ccc3c2n1C1CCN(CCC#N)CC1 [Example 843, 3-{4-[2-(2-Isopropoxy-ethoxymethyl)-6H-1,3,5,6-tetraaza-as-indacen-1-yl]-piperidin-1-yl}-propionitrile] | 80.8 nM | 631 nM | 84.2 nM | 169 nM |
| N#CCCN1CCC(n2c(COC3CCCC3)nc3cnc4[nH]ccc4c32)CC1 [Example 844, 3-[4-(2-Cyclopentyloxymethyl-6H-1,3,5,6-tetraaza-as-indacen-1-yl)-piperidin-1-yl]-propionitrile] | 177 nM | 732 nM | 97.1 nM | 169 nM |
| Cc1nc2cnc3[nH]ccc3c2n1C1CC2CCC1O2 (stereo not drawn) [Example 845, exo-2-Methyl-1-(7-oxa-bicyclo[2.2.1]hept-2-yl)-1,6-dihydro-1,3,5,6-tetraaza-as-indacene] | 13.9 nM | 28.8 nM | 4.17 nM | 52.3 nM |
| CC(O)c1nc2cnc3[nH]ccc3c2n1C1CC2CCC1O2 (stereo not drawn) [Example 848, endo-1-[1-(7-Oxa-bicyclo[2.2.1]hept-2-yl)-1,6-dihydro-1,3,5,6-tetraaza-as-indacen-2-yl]-ethanol] | 156 nM | 216 nM | 120 nM | 71.9 nM |
| CS(=O)(=O)NCCc1nc2cnc3[nH]ccc3c2n1[C@H]1CCCOC1 [Example 854, (S)—N-{2-[1-(Tetrahydro-pyran-3-yl)-1,6-dihydro-1,3,5,6-tetraaza-as-indacen-2-yl]-ethyl}-methanesulfonamide] | 77.1 nM | 138 nM | 4.01 nM | 195 nM |
| CC(=O)NCCc1nc2cnc3[nH]ccc3c2n1[C@H]1CCCOC1 [Example 856, (S)—N-{2-[1-(Tetrahydro-pyran-3-yl)-1,6-dihydro-1,3,5,6-tetraaza-as-indacen-2-yl]-ethyl}-acetamide] | 121 nM | 259 nM | 5.96 nM | 276 nM |
| O=C(NCCc1nc2cnc3[nH]ccc3c2n1[C@H]1CCCOC1)C1CC1 [Example 857, (S)-Cyclopropanecarboxylic acid {2-[1-(tetrahydro-pyran-3-yl)-1,6-dihydro-1,3,5,6-tetraaza-as-indacen-2-yl]-ethyl}-amide] | 213 nM | 364 nM | 6.23 nM | 525 nM |
| OCCc1nc2cnc3[nH]ccc3c2n1[C@H]1CCCOC1 [Example 859, (S)-2-[1-(Tetrahydro-pyran-3-yl)-1,6-dihydro-1,3,5,6-tetraaza-as-indacen-2-yl]-ethanol] | 53 nM | 68.4 nM | 10.1 nM | 107 nM |
| C[C@@H](O)c1nc2cnc3[nH]ccc3c2n1C1CCN(C2(CC#N)COC2)CC1 [Example 861, (3-{4-[2-((R)-1-Hydroxy-ethyl)-6H-1,3,5,6-tetraaza-as-indacen-1-yl]-piperidin-1-yl}-oxetan-3-yl)-acetonitrile] | 205 nM | 602 nM | 39.4 nM | 1670 nM |
| CS(=O)(=O)NCCc1nc2cnc3[nH]ccc3c2n1[C@@H]1CCCOC1 [Example 862, (R)—N-{2-[1-(Tetrahydro-pyran-3-yl)-1,6-dihydro-1,3,5,6-tetraaza-as-indacen-2-yl]-ethyl}-methanesulfonamide] | 437 nM | 994 nM | 49.5 nM | 445 nM |
| O=C(NCCc1nc2cnc3[nH]ccc3c2n1[C@@H]1CCCOC1)C1CC1 [Example 863, (R)-Cyclopropanecarboxylic acid {2-[1-(tetrahydro-pyran-3-yl)-1,6-dihydro-1,3,5,6-tetraaza-as-indacen-2-yl]-ethyl}-amide] | 828 nM | 2020 nM | 67.2 nM | 1240 nM |
| OCCc1nc2cnc3[nH]ccc3c2n1[C@@H]1CCCOC1 [Example 864, (R)-2-[1-(Tetrahydro-pyran-3-yl)-1,6-dihydro-1,3,5,6-tetraaza-as-indacen-2-yl]-ethanol] | 235 nM | 286 nM | 71.7 nM | 305 nM |
| CC(=O)NCCc1nc2cnc3[nH]ccc3c2n1[C@@H]1CCCOC1 [Example 865, (R)—N-{2-[1-(Tetrahydro-pyran-3-yl)-1,6-dihydro-1,3,5,6-tetraaza-as-indacen-2-yl]-ethyl}-acetamide] | 566 nM | 1270 nM | 87.8 nM | 717 nM |

— patent US8461328B2, “Tricyclic heterocyclic compounds, compositions and methods of use thereof” (Genentech, Inc., priority 2010, dated 2013)
